Assay results as given in patent US20240182454A1, “Polycyclic Compound for Inhibiting RNA Helicase DHX33, and Application of Compound” (Shenzhen KeYe Life Technologies, Co., Ltd, priority 2021, published 2024).

biological target: T1, DHX33 protein (Mus musculus, UniProt Q80VY9); assay: Inhibition of the helicase activity of DHX33 protein in vitro; assay type: biochemical; conditions: recombinant DHX33 protein, compound 1-1000 nM, 37° C. 60 minutes; read-out: IC50, inhibitory effects of the compounds on the helicase activity of DHX33 protein
T1 construct: 0.25 μg of purified full-length DHX33 protein; made in house; host or cells: E. coli BL-21pLysS (DE3)
T1 sequence (Q80VY9 1-698): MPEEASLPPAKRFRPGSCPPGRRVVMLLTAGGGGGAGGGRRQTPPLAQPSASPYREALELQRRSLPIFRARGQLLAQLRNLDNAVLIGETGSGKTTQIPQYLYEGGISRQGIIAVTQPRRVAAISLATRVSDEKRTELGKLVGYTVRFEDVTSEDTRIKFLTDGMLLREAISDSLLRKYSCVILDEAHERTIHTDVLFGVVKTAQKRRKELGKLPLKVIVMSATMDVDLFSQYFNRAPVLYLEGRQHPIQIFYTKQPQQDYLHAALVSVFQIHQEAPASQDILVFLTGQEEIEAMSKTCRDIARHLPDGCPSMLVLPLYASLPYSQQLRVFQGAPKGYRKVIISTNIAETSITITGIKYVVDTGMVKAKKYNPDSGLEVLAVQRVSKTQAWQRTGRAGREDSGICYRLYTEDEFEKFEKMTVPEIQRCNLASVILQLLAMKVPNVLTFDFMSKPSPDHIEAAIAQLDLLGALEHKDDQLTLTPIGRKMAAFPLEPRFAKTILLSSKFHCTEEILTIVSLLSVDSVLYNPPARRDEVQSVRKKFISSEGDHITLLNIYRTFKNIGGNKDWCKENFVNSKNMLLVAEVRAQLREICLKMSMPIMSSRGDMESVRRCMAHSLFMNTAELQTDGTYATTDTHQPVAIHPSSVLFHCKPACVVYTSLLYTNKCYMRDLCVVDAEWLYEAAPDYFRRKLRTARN
Method: Biochemistry. 2019;58 (4):250-8. RNA helicase gene (mouse DHX33 gene) was cloned into a pET32M-3C vector (between BamH I/Not I restriction sites). Afterward, the plasmid was transformed into BL-21pLysS (DE3) E. coli. 0.5 mM isopropyl 1-thio-P-D-galactopyranoside (IPTG) was added, and the expression of the recombinant protein was induced at 16° C. for 16 hours. Cells were allowed to precipitate and were resuspended in a cell lysis buffer [50 mM Tris-HCl (pH7.2), 150 mM NaCl, 1% Triton X-100, and 50 mM imidazole supplemented with a protease inhibitor]. Thereafter, cells were subjected to ultrasonic treatment and centrifuged at a rotation speed of 13000 rpm for 25 minutes. The supernatant was incubated with the nickel-nitrilotriacetic acid beads equilibrated in Tris buffer, followed by sufficient washing. Thereafter, the purified protein was eluted with a solution of 300 mM imidazole in Tris buffer, and was then subjected to dialysis against an imidazole-free Tris buffer at 4° C. overnight.
The components involved in the reaction for testing the helicase activity were added to a 96-well opaque white plate. The method was outlined as follows. The 96-well plate was coated with neutravidin at a final concentration of 10 μg/mL (100 μL/well) overnight at 4° C. Afterwards, the neutravidin-coated plate was blocked with 100 μL of 0.1% (w/v) BSA (dissolved in normal PBS) at 22° C. for 2 hours. After washing, a DNA duplex (2.5 ng) that was resulted from the annealing of two single-stranded DNA oligonucleotides (the sequence of one single strand was biotin-labeled 5′-[…]-3; and the sequence of the other single strand was DIG-labeled 5′-[…]-3′) [the annealing reaction was carried out in PBS (pH 7.0) containing 1M NaCl] was added, and the resulting mixture was incubated at 22° C. for 4 hours. After the addition of 90 μL of the reaction mixture, the helicase reaction was initiated [0.25 μg of purified full-length DHX33 protein, dissolved in 25 mM 4-MOPS (pH 7.0), 5 mM ATP, 2 mM DTT, 3 mM MnCl2 and 100 μg/mL BSA]. The reaction was conducted at 37° C. for 60 minutes. After being washed, each well was incubated with a blocking solution [10% (w/v) BSA in 0.1 M maleic acid and 0.15 M NaCl (pH 7.5)] for 30 minutes, and was then incubated with 20 μL of antibody solution (anti-DIG-AP, Roche, in blocking buffer) for 30 minutes. After being washed with 100 μL of detection buffer [0.1 M Tris-HCl and 0.1 M NaCl (pH 9.5)], each well was added with 1 μL of chemiluminescent substrate (CSPD-0.25 mM), and the plate was incubated at 17° C. for 5 minutes. […] The remaining DIG-AP marker control in each well was counted for 10 minutes by a luminescence multi-well plate reader (Enspire, PerkinElmer). Higher reading indicated weaker helicase activity. […]

Structure (SMILES)	IC50 [nM]
Cc1cc(C#N)c(-n2c(C)cc(C(=O)Nc3nc4ccc(F)cc4[nH]3)c2C)s1 [AB29556]	20 to 100
COc1cc2[nH]c(NC(=O)c3cc(C)n(-c4sc(C)cc4C#N)c3C)nc2cn1 [AB29558]	< 20
COc1cccc2nc(NC(=O)c3cc(C)n(-c4sc(C)cc4C#N)c3C)[nH]c12 [AB29559]	≥ 400
Cc1oc(-n2c(C)cc(/C=C(\C#N)c3nc4ccccc4[nH]3)c2C)c(C#N)c1C [Compound as control, reference compound]	≥ 400

tested on: U251-MG cells; assay: Half-maximal cell-inhibitory concentration on U251-MG cells (CCK-8); assay type: cell-based; conditions: Homo sapiens, U-251, U251-MG cells (DHX33-overexpressing), 48 hours incubation, read-out: IC50, half-maximal inhibitory concentrations of compounds on U251-MG cell
Method: U251-MG cells were purchased from the cell bank of the Chinese Academy of Sciences. Cells were cultured in MEM medium containing 10% fetal bovine serum (FBS), 2 mM L-glutamine, streptomycin and penicillin. The growth conditions were set as follows: a humidified cell incubator (37° C., 5% CO2). Cells were passaged every 3 days and were discarded after 10 passages.
U251-MG cells (a DHX33-overexpressing cancer cell strain) were seeded on a 96-well plate at 1×10^4 cells/100 μl/well. After the cells were completely attached, the compounds were added to the cell culture medium at a concentration of 5 nM, 10 nM, 25 nM, 50 nM, 100 nM, 250 nM, 500 nM, 1000 nM, 2000 nM, 5000 nM, 10 μM or 20 μM, and the resulting mixture was uniformly mixed with a multichannel pipette. After the cells were incubated with the compound for 48 hours, CCK-8 reagent (Yeasen Biotechnology (Shanghai) Co., Ltd.) was added to the medium in the 96-well plate in accordance with the standard procedure. After being incubated for 2 hours, the plate was read with a microplate reader (OD=450 nm). The experiment was repeated three times, the inhibiton curve of the compound at different concentrations was plotted, and the half-maximal inhibitory concentration (IC50) of the compound was calculated.

Structure (SMILES)	IC50 [nM]
COc1ccc2nc(NC(=O)c3cc(C)n(-c4oc(C)nc4C#N)c3C)[nH]c2c1 [AB29522]	100 to 1000
COc1ccc2nc(C(=O)Nc3cc(C)n(-c4sc(C)cc4C#N)c3C)[nH]c2c1 [AB29540]	100 to 1000
COc1ccc2nc(NC(=O)c3cc(C)n(Cc4cccs4)c3C)[nH]c2c1 [AB29552]	1000 to 5000
Cc1cc(C#N)c(-n2c(C)cc(C(=O)Nc3nc4ccccc4[nH]3)c2C)s1 [AB29553]	100 to 1000
Cc1cc(C#N)c(-n2c(C)cc(C(=O)Nc3nc4cccnc4[nH]3)c2C)s1 [AB29554]	1000 to 5000
Cc1cc(C#N)c(-n2c(C)cc(C(=O)Nc3nc4ccncc4[nH]3)c2C)s1 [AB29555]	1000 to 5000
Cc1cc(C#N)c(-n2c(C)cc(C(=O)Nc3nc4ccc(F)cc4[nH]3)c2C)s1 [AB29556]	100 to 1000
Cc1cc(C#N)c(-n2c(C)cc(C(=O)Nc3nc4ccc(Cl)cc4[nH]3)c2C)s1 [AB29557]	100 to 1000
COc1cc2[nH]c(NC(=O)c3cc(C)n(-c4sc(C)cc4C#N)c3C)nc2cn1 [AB29558]	< 100
COc1cccc2nc(NC(=O)c3cc(C)n(-c4sc(C)cc4C#N)c3C)[nH]c12 [AB29559]	1000 to 5000
COc1ccc2nc(N(C)C(=O)c3cc(C)n(-c4sc(C)cc4C#N)c3C)[nH]c2c1 [AB29560]	100 to 1000
COc1ccc2nc(NC(=O)c3cc(C)n(-c4sc(C)cc4C#N)c3C)n(C)c2c1 [AB29561]	100 to 1000
COCn1c(NC(=O)c2cc(C)n(-c3sc(C)cc3C#N)c2C)nc2ccc(OC)cc21 [AB29562]	100 to 1000
COCn1c(NC(=O)c2cc(C)n(-c3sc(C)cc3C#N)c2C)nc2cc(OC)ccc21 [AB29563]	100 to 1000
COc1ccc2nc(NC(=O)c3cc(C)n(-c4sc(C)cc4C#N)c3C)n(COC(=O)C(C)(C)C)c2c1 [AB29564]	1000 to 5000
COc1ccc2c(c1)nc(NC(=O)c1cc(C)n(-c3sc(C)cc3C#N)c1C)n2COC(=O)C(C)(C)C [AB29565]	1000 to 5000
COc1cnc2nc(NC(=O)c3cc(C)n(-c4sc(C)cc4C#N)c3C)[nH]c2c1 [AB29566]	< 100
Cc1cc(C#N)c(-n2c(C)cc(C(=O)Nc3nc4ccc(OC(F)(F)F)cc4[nH]3)c2C)s1 [AB29572]	1000 to 5000
COc1cc2cc(NC(=O)c3cc(C)n(-c4sc(C)cc4C#N)c3C)[nH]c2cn1 [AB29573]	100 to 1000
